In brackets after ≈: the same amount, converted by molar mass. Like-named read-outs stand apart in the source and are kept apart here.
Experiments:
[1] = tested on: S. aureus ATCC 25923; assay: Antibacterial activity, post-exposure on preformed 18-h-old biofilms; assay type: cell-based, Staphylococcus aureus; details: ± SD; for inhibition at 25 µM / inhibition at 50 µM / inhibition at 100 µM / inhibition at 200 µM: Staphylococcus aureus; for inhibition at 25 µM: ATCC25923, 25 µM; for inhibition at 50 µM: ATCC25923, 50 µM; for inhibition at 100 µM: ATCC25923, 100 µM; for inhibition at 200 µM: ATCC25923, 200 µM
Procedure, shortened: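 Compounds were applied to preformed 18-h biofilms after medium change and left 24 h. Read-outs: planktonic OD plus resazurin fluorescence (20 μM), biofilm metabolic activity by resazurin 30 min at 37 °C, then biomass by crystal violet absorbance at 595 nm after ethanol fixation.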

[2] = tested on: S. aureus ATCC 25923; assay: Antibacterial activity, pre-exposure (planktonic cells and biofilm formation); assay type: cell-based, Staphylococcus aureus; details: for MIC / inhibition at 5 µM / inhibition at 10 µM / inhibition at 15 µM / inhibition at 25 µM: Staphylococcus aureus, ATCC25923; for inhibition at 5 µM / inhibition at 10 µM / inhibition at 15 µM / inhibition at 25 µM / Average inhibition %, biofilms viability / Average inhibition %, planktonic cells viability: pre-exposure, ± SD
Procedure, shortened: (§1)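 Bacteria and compound were co-incubated from the start for 18 h at 37 °C, 220 rpm. Planktonic cells scored by turbidity plus resazurin reduction; washed biofilms scored by 20 μM resazurin (30, 60, 90 min for S. aureus, A. baumannii, P. aeruginosa) and ethanol-fixed crystal violet staining.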

[3] = tested on: A. baumannii NCTC 13423; assay: Antibacterial activity, pre-exposure; assay type: cell-based, Acinetobacter baumannii; details: for Average inhibition %, biofilms viability / Average inhibition %, planktonic cells viability / inhibition at 10 µM / inhibition at 15 µM / inhibition at 25 µM / inhibition at 50 µM: A. baumannii NCTC 13423, pre-exposure, ± SD; for inhibition at 10 µM / inhibition at 15 µM / inhibition at 25 µM / inhibition at 50 µM / MIC: Acinetobacter baumannii, NCTC13423
Procedure, shortened: as §1

[4] = tested on: P. aeruginosa ATCC 9027; assay: Antibacterial activity, pre-exposure; assay type: cell-based, Pseudomonas aeruginosa; details: for Average inhibition %, biofilms viability / Average inhibition %, planktonic cells viability / inhibition at 50 µM / inhibition at 100 µM / inhibition at 150 µM / inhibition at 200 µM: P. aeruginosa ATCC 9027, pre-exposure, ± SD; for inhibition at 50 µM / inhibition at 100 µM / inhibition at 150 µM / inhibition at 200 µM: Pseudomonas aeruginosa, ATCC9027
Procedure, shortened: as §1

[5] = read-out: Average inhibition %, biofilms biomass
[6] = read-out: Average inhibition %, planktonic cells turbidity
[7] = 10 µM, read-out: Average inhibition %, biofilms biomass
[8] = 10 µM, read-out: Average inhibition %, planktonic cells turbidity
[9] = 15 µM, read-out: Average inhibition %, biofilms biomass
[10] = 15 µM, read-out: Average inhibition %, planktonic cells turbidity
[11] = 25 µM, read-out: Average inhibition %, biofilms biomass
[12] = 25 µM, read-out: Average inhibition %, planktonic cells turbidity
[13] = 50 µM, read-out: Average inhibition %, biofilms biomass
[14] = 50 µM, read-out: Average inhibition %, planktonic cells turbidity

Q: Which results are given for `CCCCCCCCc1ccc2nc(CCC(N)(CO)CO)ccc2c1` [Compound 80, 2-Amino-2-[2-(6-octylquinolin-2-yl)ethyl]propane-1,3-diol]?
A: Average inhibition %, biofilms viability ([1]; 25 µM): 13.8 ± 11.7%; Average inhibition %, planktonic cells viability ([1]; 25 µM): 17.5 ± 26.7%; Average inhibition %, biofilms viability ([1]; 50 µM): 29.8 ± 10.2%; Average inhibition %, planktonic cells viability ([1]; 50 µM): 21.5 ± 33.1%; Average inhibition %, biofilms viability ([1]; 100 µM): 48.6 ± 5.2%; Average inhibition %, planktonic cells viability ([1]; 100 µM): 81 ± 8%; Average inhibition %, biofilms viability ([1]; 200 µM): 48.4 ± 12%; Average inhibition %, planktonic cells viability ([1]; 200 µM): 93.2 ± 1.3%; inhibition at 25 µM [1, 5]: 25.1 ± 16.4%; inhibition at 25 µM [1, 6]: 31.7 ± 26.5%; inhibition at 50 µM [1, 5]: 50.2 ± 3.2%; inhibition at 50 µM [1, 6]: 26 ± 39.1%; inhibition at 100 µM [1, 5]: 61.9 ± 7.7%; inhibition at 100 µM [1, 6]: 64.3 ± 18.5%; inhibition at 200 µM [1, 5]: 51.5 ± 9.6%; inhibition at 200 µM [1, 6]: 73.4 ± 9.8%; MIC ([2]; lowest concentration with no visible growth (>90% inhibition of turbidity and viability of planktonic cells), 18 h, read-out: MIC S. aureus ATCC 25923): 10 µM (≈ 3.59 µg/mL); inhibition at 5 µM ([2]; 5 µM, read-out: Average inhibition %, biofilms biomass): 24.2 ± 6.6%; inhibition at 5 µM ([2]; 5 µM, read-out: Average inhibition %, planktonic cells turbidity): 43 ± 17%; inhibition at 10 µM [2, 7]: 97.6 ± 1%; inhibition at 10 µM [2, 8]: 99 ± 0.7%; inhibition at 15 µM [2, 9]: 97.3 ± 0.6%; inhibition at 15 µM [2, 10]: 99.5 ± 0.3%; inhibition at 25 µM [2, 11]: 92.3 ± 1.5%; inhibition at 25 µM [2, 12]: 99.1 ± 0.3%; MIC ([2]; read-out: MIC (S. aureus)): 10 µM (≈ 3.59 µg/mL); Average inhibition %, biofilms viability ([2]; 5 µM): 26.7 ± 15.1%; Average inhibition %, planktonic cells viability ([2]; 5 µM): 13.9 ± 22.4%; Average inhibition %, biofilms viability ([2]; 10 µM): 99.2 ± 1.4%; Average inhibition %, planktonic cells viability ([2]; 10 µM): 99.4 ± 0%; Average inhibition %, biofilms viability ([2]; 15 µM): 99.5 ± 0.5%; Average inhibition %, planktonic cells viability ([2]; 15 µM): 99.5 ± 0%; Average inhibition %, biofilms viability ([2]; 25 µM): 99.4 ± 0.3%; Average inhibition %, planktonic cells viability ([2]; 25 µM): 99.7 ± 0%; Average inhibition %, biofilms viability ([3]; 10 µM): 0 ± 0%; Average inhibition %, planktonic cells viability ([3]; 10 µM): 7.2 ± 5.2%; Average inhibition %, biofilms viability ([3]; 15 µM): 71.9 ± 26.2%; Average inhibition %, planktonic cells viability ([3]; 15 µM): 98.9 ± 0.3%; Average inhibition %, biofilms viability ([3]; 25 µM): 101.6 ± 1.6%; Average inhibition %, planktonic cells viability ([3]; 25 µM): 99.6 ± 0.1%; Average inhibition %, biofilms viability ([3]; 50 µM): 101.8 ± 1.3%; Average inhibition %, planktonic cells viability ([3]; 50 µM): 99.5 ± 0.2%; inhibition at 10 µM [3, 7]: 1.6 ± 2.8%; inhibition at 10 µM [3, 8]: 0.8 ± 1.5%; inhibition at 15 µM [3, 9]: 53 ± 33.4%; inhibition at 15 µM [3, 10]: 96.4 ± 3%; inhibition at 25 µM [3, 11]: 84.3 ± 5.9%; inhibition at 25 µM [3, 12]: 99 ± 0.9%; inhibition at 50 µM [3, 13]: 74.7 ± 11.4%; inhibition at 50 µM [3, 14]: 98.8 ± 0.9%; MIC ([3]; pre-exposure, Inactive = no activity up to 50 μM, > = some inhibition but no MIC reached, read-out: MIC A. baumannii NCTC 13423): 15 to 25 µM (≈ 5.38 to 8.96 µg/mL); MIC ([3]; supplementary molecular formula strings sheet, read-out: MIC (A. baumannii)): 15 to 25 µM (≈ 5.38 to 8.96 µg/mL); Average inhibition %, biofilms viability ([4]; 50 µM): 9.8 ± 12.2%; Average inhibition %, planktonic cells viability ([4]; 50 µM): 39.9 ± 11%; Average inhibition %, biofilms viability ([4]; 100 µM): 10.5 ± 10%; Average inhibition %, planktonic cells viability ([4]; 100 µM): 46.1 ± 11.6%; Average inhibition %, biofilms viability ([4]; 150 µM): 14.3 ± 12.2%; Average inhibition %, planktonic cells viability ([4]; 150 µM): 22.9 ± 1.7%; Average inhibition %, biofilms viability ([4]; 200 µM): 15.3 ± 15.9%; Average inhibition %, planktonic cells viability ([4]; 200 µM): 33.1 ± 16.1%; inhibition at 50 µM [4, 13]: 5.2 ± 5.2%; inhibition at 50 µM [4, 14]: 48 ± 11.1%; inhibition at 100 µM ([4]; 100 µM, read-out: Average inhibition %, biofilms biomass): 0%; inhibition at 100 µM ([4]; 100 µM, read-out: Average inhibition %, planktonic cells turbidity): 55.5 ± 5.2%; inhibition at 150 µM ([4]; 150 µM, read-out: Average inhibition %, biofilms biomass): 12.1 ± 10.7%; inhibition at 150 µM ([4]; 150 µM, read-out: Average inhibition %, planktonic cells turbidity): 42.1 ± 13.6%; inhibition at 200 µM ([4]; 200 µM, read-out: Average inhibition %, biofilms biomass): 12.3 ± 19.1%; inhibition at 200 µM ([4]; 200 µM, read-out: Average inhibition %, planktonic cells turbidity): 55.3 ± 0.9%; MIC P. aeruginosa ATCC 9027 ([4]; pre-exposure, Inactive = no activity up to 200 μM, > = some inhibition but no MIC reached): Inactive

Reference: PMC8296573, “Synthesis and Biological Evaluation of Fingolimod Derivatives as Antibacterial Agents” (ACS Omega, 2021)
